# In patent publication EP3677663A1, “NON-ENZYMATIC REMOVAL OF PROTEINACEOUS SOILS” (Henkel AG & Co. KGaA, priority 2019, dated 2020):
# Key:
# Whey protein = experiment: Hydrolysis of unaltered Whey protein by polyoxometalates, monitored by SDS-PAGE; type: biochemical; conditions: 60°C, 1.5 mg/ml Whey protein, polyoxometalate 14 mg/ml
# Experimental: (§1) All gels were 100x100x1 mm and the stacking gel was approximately 1 cm long from the bottom of the comb to the top of the resolving gel resulting in a resolving gel of 8 cm. 2. Table 1: Composition of the solutions to prepare 18% resolving and 5% stacking gel.
# (§2) After pouring the resolving gel, a thin layer of isopropanol was carefully added on top of the gel. The resolving gel was left 1 hour to harden, and isopropanol was removed before pouring the stacking gel. A 12 well comb was placed inside the stacking gel and left to harden for an additional hour. The finished gels were kept in the fridge.
# (§3) Samples were prepared by mixing a 10 µl of sample with 5 µl of 3X sample buffer (225 µl TRIS/HCI buffer (1M, pH 6.8), 630 mg glycerol, 50 mg SDS, 0.5 mg bromophenol blue and 250 µl 1 M DTI), incubating at 95 °C for 5 minutes and centrifuging the samples after they are cooled to room temperature. The wells of the stacking gel were loaded with 10 µl of sample and 5 µl of protein ladder.
# (§4) An OmniPAGE electrophoretic cell was combined with an EV243 power supply (both produced by Consort) in experiments at 30 mA/gel and 100 V/gel for the 18% resolving gel (approximately 2.5 hours) and 20 mA/gel and 100 V/gel for the 12% resolving gel (approximately 1.5 hours). As anode and cathode buffer a TRIS/Tricine running buffer (0.1 M TRIS, 0.1 M Tricine and 0.1 wt/vol% SDS) was used for 18% gels and a TRIS/Glycine running buffer (0.2 M Glycine, 0.025 M TRIS and 0.1 wt/vol% SDS) for 12% gels. Before staining the gels were fixed for 1 hour in a 12 wt/vol% TCA solution. The staining was done by leaving the gels in a colloidal coomassie blue solution (700 ml H2O, 100 ml H3PO4, […], 1.2 g coomassie blue and 200 ml methanol) over night and subsequently destained with a heavy destain solution {60 ml methanol, 20 ml acetic acid and 120 ml water) and water. Finally, the gels were analyzed with a Gel Doc EZ imager and Image LabTM Software (both supplied by Bio-Rad). The kinetics of the reactions were studied by plotting the relative intensity of the intact proteins band in function of time and fitted to the exponential expression of a pseudo first-order reaction: I = I0 e^-kobst
# (§5) In this equation I represents the intensity in function of time t, I0 the intensity at time 0 and kobs is the observed hydrolysis rate. The half-life (t½) of the intact protein was calculated according to t½ = (ln(2))/(kobs) [formula]
# (§6) To solutions of 1.0 mg/ml solution of unaltered Ovalbumin or the Lactose/Ovalbumin Maillard reaction samples of example 4 or of 1.5 mg/ml solution of unaltered Whey protein or the Lactose/Whey protein Maillard reaction samples of example 4 were added the polyoxometalates of examples 1 to 3 at a concentration of 14 mg/ml. The rate of hydrolysis for the proteins at 60°C at pH 4 (sodium citrate buffer, 10 mM) and 9 (glycine/NaOH buffer, 10 mM) was studied over time. Results for the hydrolysis rate and the half-life of the unaltered protein samples are given in tables 5 and 6 and results for the half-life of altered proteinaceous samples of example 4 (treated at pH 9) are given in table 7. Table 5: Hydrolysis of unaltered Whey protein
# Ovalbumin = molecular target: T1, Ovalbumin (Gallus gallus, UniProt P01012); experiment: Hydrolysis of unaltered Ovalbumin by polyoxometalates, monitored by SDS-PAGE; type: biochemical, chicken; conditions: 60°C, 1.0 mg/ml Ovalbumin, polyoxometalate 14 mg/ml
# T1 construct: Ovalbumin from chicken egg was purchased from Acros (Mw 44.5 kDa); purchased Acros; host or cells: chicken egg
# T1 sequence (P01012 1-386): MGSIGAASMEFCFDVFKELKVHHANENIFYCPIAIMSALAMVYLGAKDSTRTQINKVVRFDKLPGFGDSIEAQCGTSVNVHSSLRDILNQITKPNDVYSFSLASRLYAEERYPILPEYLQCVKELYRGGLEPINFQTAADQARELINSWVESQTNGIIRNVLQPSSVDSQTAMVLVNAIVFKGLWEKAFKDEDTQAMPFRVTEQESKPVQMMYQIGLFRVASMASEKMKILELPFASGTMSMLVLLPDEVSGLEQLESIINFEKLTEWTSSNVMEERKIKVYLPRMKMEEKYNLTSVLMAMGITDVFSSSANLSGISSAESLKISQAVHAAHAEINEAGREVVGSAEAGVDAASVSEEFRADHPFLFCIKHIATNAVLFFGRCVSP
# Experimental: as §1, §2, §3, §4, §5, §6
# [1] = pH 4 (sodium citrate buffer, 10 mM)
# [2] = pH 9 (glycine/NaOH buffer, 10 mM)
Substance,Rate x 10^-3 [min^-1] (Whey protein; [1]),Rate x 10^-3 [min^-1] (Whey protein; [2]),Rate x 10^-3 [min^-1] (Ovalbumin; [1]),Rate x 10^-3 [min^-1] (Ovalbumin; [2])
((C2H5)2NH2)10[Zr(PW11O39)2] [ZrKe2],1.8±0.7 x 10^-3 min^-1,6±1 x 10^-3 min^-1,4.3±0.4 x 10^-3 min^-1,5±2 x 10^-3 min^-1
((C2H5)2NH2)6[Zr2(PW11O39)2] [Zr2Ke2],3.8±0.8 x 10^-3 min^-1,1±1 x 10^-3 min^-1,6±3 x 10^-3 min^-1,7±3 x 10^-3 min^-1
K10[Ce(PW11O39)2] [CeKe2],9±5 x 10^-3 min^-1,5.30±0.04 x 10^-3 min^-1,6±2 x 10^-3 min^-1,7±1 x 10^-3 min^-1
